In patent EP3046573B1, “AMYLIN ANALOGUES” (Zealand Pharma A/S, priority 2013, dated 2015):
Where two headings read alike, the source gives them in different places. Numbered stars: 1 amine (or outer) side, 2 acyl side, 3 side chain; on linkers, the order of the positions; unused ones are H or OH. Bridge positions count the residues as written; N and C are the ends. Square brackets hold non-standard residues; d marks the D form. Peptide text beside a SMILES is read from it. * marks the point of attachment. C20 diacid = O=C(O)CCCCCCCCCCCCCCCCCCC(=O)*; γGlu = O=C(O)[C@H](CCC(=O)[*:2])N[*:1]; NMeI = CC[C@H](C)[C@H](NC)C(=O)O; Sar = CNCC(=O)O

Experiments:
[1] = molecular target: T1, human calcitonin receptor (hCTR2) (Homo sapiens, UniProt P30988); assay: hCTR2 assay: induction of cAMP (AlphaScreen cAMP Assay kit) in COS7 cells expressing hCTR2; type: cell-based; settings: cAMP induction in COS7 cells expressing hCTR2; average of a minimum of 3 determinations; read-out: hCTR2 EC50
T1 construct: expressed in transfected cells
T1 sequence (P30988 25-474): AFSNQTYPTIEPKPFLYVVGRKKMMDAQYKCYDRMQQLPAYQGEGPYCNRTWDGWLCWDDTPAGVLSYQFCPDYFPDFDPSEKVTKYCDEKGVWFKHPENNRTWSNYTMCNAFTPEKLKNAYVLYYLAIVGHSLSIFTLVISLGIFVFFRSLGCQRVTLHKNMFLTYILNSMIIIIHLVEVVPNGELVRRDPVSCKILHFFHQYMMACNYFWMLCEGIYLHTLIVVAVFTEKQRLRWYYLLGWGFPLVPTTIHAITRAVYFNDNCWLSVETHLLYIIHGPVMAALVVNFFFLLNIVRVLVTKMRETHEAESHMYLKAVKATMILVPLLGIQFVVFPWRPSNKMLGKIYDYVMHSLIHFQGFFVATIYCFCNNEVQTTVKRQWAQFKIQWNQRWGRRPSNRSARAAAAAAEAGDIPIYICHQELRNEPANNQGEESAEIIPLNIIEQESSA
Procedure, shortened: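 Cells were seeded one day ahead, washed, then exposed to rising peptide concentrations for 15 min at 37° C in the presence of 100 µM IBMX. After lysis for 10 min at room temperature, cAMP was quantified by AlphaScreen and EC50 values derived by 4PL fitting.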

[2] = molecular target: T2, human amylin receptor 3 (hAMYR3) consisting of hCTR2 co-expressed with human Receptor Activity Modifying Protein 3 (hRAMP3) (Homo sapiens, UniProt O60896+P30988); assay: hAMYR3 assay: induction of cAMP (AlphaScreen cAMP Assay kit) in COS7 cells expressing hAMYR3; type: cell-based
T2 construct: expressed in transfected cells
T2 sequence (P30988 25-474): T1 sequence (P30988 25-474)
T2 sequence (O60896 24-148 partner): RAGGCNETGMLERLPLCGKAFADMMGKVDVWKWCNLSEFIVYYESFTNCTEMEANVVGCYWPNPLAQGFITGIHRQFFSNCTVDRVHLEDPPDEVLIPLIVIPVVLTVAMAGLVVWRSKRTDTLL
From the text: The cell line COS7, originating from African Green Monkey kidney fibroblast cells, was used for establishment of the stable cell lines described below. The COS7 cellular background was used due to it being RAMP naive, and as such it provides the best available system for testing of the monomeric hCTR and different heterodimeric amylin receptor subtypes functionally generated by introduction of the individual RAMPs.
A cell line expressing the human amylin receptor 3 (hAMYR3) was generated in the COS7 cellular background as stable clones. In brief, hCTR2 (GI:4502547) and hRAMP3 (GI:118572586) were amplified by PCR using primers encoding terminal restriction sites for subcloning. The 5'-end primers additionally encoded a near Kozak consensus sequence to ensure efficient translation. The fidelity of the DNA encoding the receptor was confirmed by DNA sequencing. The PCR products encoding the receptor were subcloned into a proprietary tri-cistronic mammalian expression vector with RAMP3, hCTR2 and neomycin (G418) resistance marker. The mammalian expression vector encoding the receptor was transfected into COS7 cells by a standard liposome transfection method. 48 hours post-transfection, cells were seeded for limited dilution cloning and selected with 1 mg/ml G418 in the culture medium. After 3 weeks, surviving colonies of hAMY3R-expressing cells were picked, propagated and tested in the amylin efficacy assay as described in Example 3 below. The functional generation of the amylin receptor phenotype was verified in the efficacy assay by a left-shifted efficacy response to amylin relative to monomeric calcitonin receptor, and one hAMYR3-expressing clone was chosen for compound profiling.
In vitro activity of test peptides at the hCTR2 and hAMYR3 receptors was assessed by measuring the induction of cAMP following stimulation of the receptor by pramlintide or peptides of the invention using the AlphaScreen® cAMP Assay kit from Perkin-Elmer.
Briefly, COS7 cells expressing hCTR2 (see Example 2, above) were seeded at 30-40,000 cells per well in 96-well microtiter plates coated with 0.01 % poly-L-lysine, and grown for 1 day in culture in 100 µl growth medium [DMEM, 10% FCS, Penicillin (100 IU/ml), Streptomycin (100 µg/ml)]. On the day of analysis, growth medium was removed and the cells were washed once with 200 µl Tyrode buffer [Tyrode's Salts (9.6 g/l), 10 mM HEPES, pH 7.4]. Cells were incubated in 100 µl Tyrode buffer containing increasing concentrations of test peptides, 100 µM IBMX and 0.1% casein for 15 min at 37° C. The reaction was stopped by carefully decanting off the compound/buffer medium and replacing it with lysis/detection buffer (80 µl 0.1 % w/v BSA, 5 mM HEPES, 0.3 % v/v Tween-20 in deionized water). After incubation at room temperature for 10 min., the cAMP content of the resulting cell lysate was estimated according to the AlphaScreen® cAMP Assay manufacturer's instructions. EC50 values and relative efficacy values (in %) compared to reference peptide (Pramlintide) were estimated by computer-aided curve fitting using the 4-parameter logistic (4PL) non-linear model.
The in vitro activity results (expressed as EC50 values) for peptides of the invention and for Pramlintide (reference peptide) are summarized in Table 2, below.

EC50 ([2]; cAMP induction in COS7 cells expressing hAMYR3, average of a minimum of 3 determinations, read-out: hAMY R3 EC50) [nM] | Compound | EC50 [1] [nM] | EC50 [2] [nM]
 | CC[C@H](C)[C@@H](C(=O)N[C@@H](CC(C)C)C(=O)N[C@@H](CO)C(=O)N[C@@H](CO)C(=O)N[C@H](C(=O)N[C@@H](CCC(=O)O)C(=O)N[C@H](C(=O)NCC(=O)N[C@@H](CO)C(=O)N[C@@H](CCC(=O)O)C(=O)N[C@H](C(=O)N1CCC[C@H]1C(N)=O)[C@@H](C)O)C(C)C)[C@@H](C)O)N(C)C(=O)[C@H](C)NC(=O)CN(C)C(=O)[C@H](Cc1ccccc1)NC(=O)[C@H](CO)NC(=O)[C@H](CO)NC(=O)[C@H](CO)NC(=O)[C@H](CO)NC(=O)[C@H](CCCNC(=N)N)NC(=O)[C@H](Cc1c[nH]cn1)NC(=O)[C@H](CC(C)C)NC(=O)[C@H](Cc1ccccc1)NC(=O)[C@H](CCC(=O)O)NC(=O)[C@H](C)NC(=O)[C@H](CC(C)C)NC(=O)[C@H](CCCNC(=N)N)NC(=O)[C@H](CO)NC(=O)[C@@H](NC(=O)[C@H](C)NC(=O)[C@@H]1CSSC[C@H](NC(=O)[C@H](CCCNC(=N)N)NC(=O)CC[C@H](NC(=O)CCCCCCCCCCCCCCCCCCC(=O)O)C(=O)O)C(=O)N2CCC[C@H]2C(=O)N[C@@H]([C@@H](C)O)C(=O)N[C@@H](C)C(=O)N[C@@H]([C@@H](C)O)C(=O)N1)[C@@H](C)O [Compound 140, [19CD]-isoGlu-RC()PTATC()ATSRLAEFLHRSSSSF-Gly(Me)-A-Ile(Me)-LSSTEVGSETP-NH2] ({C20 diacid-γGlu}-RCPTATCATSRLAEFLHRSSSSF[Sar]A[NMeI]LSSTEVGSETP-NH2; disulfide 2-7) | 0.098 | 0.18
0.29 | CC[C@H](C)[C@@H](C(=O)N[C@@H](CC(C)C)C(=O)N[C@@H](CO)C(=O)N[C@@H](CO)C(=O)N[C@H](C(=O)N[C@@H](CCC(=O)O)C(=O)N[C@H](C(=O)NCC(=O)N[C@@H](CO)C(=O)N[C@@H](CCC(=O)O)C(=O)N[C@H](C(=O)N1CCC[C@H]1C(N)=O)[C@@H](C)O)C(C)C)[C@@H](C)O)N(C)C(=O)[C@H](C)NC(=O)CN(C)C(=O)[C@H](Cc1ccccc1)NC(=O)[C@H](CO)NC(=O)[C@H](CO)NC(=O)[C@H](CO)NC(=O)[C@H](CO)NC(=O)[C@H](CCCNC(=N)N)NC(=O)[C@H](Cc1c[nH]cn1)NC(=O)[C@H](CC(C)C)NC(=O)[C@H](Cc1ccccc1)NC(=O)[C@H](CCC(=O)O)NC(=O)[C@H](C)NC(=O)[C@H](CC(C)C)NC(=O)[C@H](CCCNC(=N)N)NC(=O)[C@@H]1CCCN1C(=O)[C@@H](NC(=O)[C@H](C)NC(=O)[C@@H]1CSSC[C@H](NC(=O)[C@H](CCCNC(=N)N)NC(=O)CC[C@H](NC(=O)CCCCCCCCCCCCCCCCCCC(=O)O)C(=O)O)C(=O)N[C@@H](CC(N)=O)C(=O)N[C@@H]([C@@H](C)O)C(=O)N[C@@H](C)C(=O)N[C@@H]([C@@H](C)O)C(=O)N1)[C@@H](C)O [Compound 142, [19CD]-isoGlu-RC()NTATC()ATPRLAEFLHRSSSSF-Gly(Me)-A-Ile(Me)-LSSTEVGSETP-NH2] ({C20 diacid-γGlu}-RCNTATCATPRLAEFLHRSSSSF[Sar]A[NMeI]LSSTEVGSETP-NH2; disulfide 2-7) | 0.14 | 
